Data taken from patent US8962527B2, “Process for preparation of herbicidal salts” (Nufarm Australia Limited, priority 2010, dated 2015).

How the values were obtained:
[1] = pH of 3% solution of the finished product in H2O; type: physicochemical; details: 3% solution in H2O
Protocol: The reaction was monitored by addition of small amounts of reaction mixture to water. When the mixture provides a pH of 8 and remains at this pH the reaction was considered complete. The product was filtered and dried at temperature not greater than 60° C. The mother liquor is made up with fresh MTBE, ready for the next batch.

[2] = Hygroscopicity of the finished product; type: physicochemical; details: dried solid product

| SMILES | pH [1] | hygroscopicity of product [2] |
| --- | --- | --- |
| CNC.Cc1cc(Cl)ccc1OCC(=O)O [Example 1, MCPA/DMA Salt] | 5.5-6.5 | extremely hydroscopic |
| CNC.COc1c(Cl)ccc(Cl)c1C(=O)O [Example 2, Dicamba/DMA Salt] | 5.5-6.5 | extremely hydroscopic |
| CNC.Cc1cc(Cl)ccc1OC(C)C(=O)O (centres unmarked) [Example 3, MCPP/DMA Salt] | 5.8-6.3 | extremely hydroscopic |
| CC(Oc1ccc(Cl)cc1Cl)C(=O)O.CNC (centres unmarked) [Example 4, 2,4-DP/DMA Salt] | 5.8-6.5 | not hydroscopic |
